The results in this text go back to patent US20240158446A1, “CYCLIC COMPOUND HAVING SELECTIVE INHIBITORY ACTION ON KRAS OVER HRAS AND NRAS” (CHUGAI SEIYAKU KABUSHIKI KAISHA, priority 2021, published 2024).

Experiment [1] addresses GDP-bound HRAS wild-type protein (Homo sapiens, UniProt P01112). Nature of the experiment: Binding to HRAS by surface plasmon resonance (SPR), Single Cycle Kinetics. As to conditions: for HRAS/KRAS (ratio of KD value for HRAS to KD value for KRAS): SPR, GDP-bound HRAS wild-type protein vs GDP-bound KRAS wild-type protein.
In experiment [2] the target is GDP-bound KRAS wild-type protein (Homo sapiens, UniProt P01116). Nature of the experiment: Binding to KRAS by surface plasmon resonance (SPR), Single Cycle Kinetics. As to conditions: GDP-bound KRAS wild-type protein, read-out: KRAS KD.
Experiment [3] relates to human lung cancer strain NCI-H441.
The target of experiment [4] is GDP-bound NRAS wild-type protein (Homo sapiens, UniProt P01111). As to the kind of experiment: Binding to NRAS by surface plasmon resonance (SPR), Single Cycle Kinetics. As to conditions: for NRAS/KRAS (ratio of KD value for NRAS to KD value for KRAS): SPR, GDP-bound NRAS wild-type protein vs GDP-bound KRAS wild-type protein.
The mark [5] stands for this setting: SPR Single Cycle Kinetics, 1:1 binding model.
Setting [6] is: SPR, Single Cycle Kinetics, 1:1 binding model.

Read-outs that look alike come from different tables or passages of the source. Where a SMILES comes first, the peptide text is derived from it. Bridges are numbered along the chain shown (N, C = ends). [ ]: non-standard residue; d: D form. The star is where a group is joined. hPhe(3-Cl-4-CF3) = N[C@@H](CCc1ccc(C(F)(F)F)c(Cl)c1)C(=O)O; NEtPhe(4-Me) = CCN[C@@H](Cc1ccc(C)cc1)C(=O)O; NMeGly(cPent) = CN[C@H](C(=O)O)C1CCCC1; Hyp = O=C(O)[C@@H]1C[C@@H](O)CN1; NMeD = CN[C@@H](CC(=O)O)C(=O)O; NMeL = CN[C@@H](CC(C)C)C(=O)O; Morpholide = C1CN(*)CCO1; Ac5c = NC1(C(=O)O)CCCC1; Sar = CNCC(=O)O
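For IC50 in this document: cell proliferation inhibition after four days measured by CellTiter-Glo.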

GDP-bound KRAS wild-type protein, sequence (P01116 whole entry): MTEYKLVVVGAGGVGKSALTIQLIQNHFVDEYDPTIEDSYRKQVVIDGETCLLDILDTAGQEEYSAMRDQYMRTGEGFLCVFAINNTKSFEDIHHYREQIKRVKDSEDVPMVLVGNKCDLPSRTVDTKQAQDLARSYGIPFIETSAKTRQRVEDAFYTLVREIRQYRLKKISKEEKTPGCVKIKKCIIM
GDP-bound NRAS wild-type protein, sequence (P01111 whole entry): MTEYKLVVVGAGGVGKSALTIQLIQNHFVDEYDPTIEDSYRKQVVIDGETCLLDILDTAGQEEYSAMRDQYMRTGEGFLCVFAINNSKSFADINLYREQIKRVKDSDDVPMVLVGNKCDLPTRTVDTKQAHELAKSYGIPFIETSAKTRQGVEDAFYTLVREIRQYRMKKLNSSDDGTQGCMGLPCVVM
GDP-bound HRAS wild-type protein, sequence (P01112 whole entry): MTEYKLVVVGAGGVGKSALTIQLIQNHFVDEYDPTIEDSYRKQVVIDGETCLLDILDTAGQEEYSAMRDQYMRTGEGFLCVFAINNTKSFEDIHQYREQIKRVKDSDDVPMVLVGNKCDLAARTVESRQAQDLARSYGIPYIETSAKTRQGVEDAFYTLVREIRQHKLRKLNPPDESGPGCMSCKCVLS

`CC[C@H](C)[C@@H]1NC(=O)[C@H](CC(C)C)N(C)C(=O)C[C@@H](C(=O)N2CCOCC2)N(C)C(=O)[C@H](C2CCCC2)N(C)C(=O)C2(CCCC2)NC(=O)[C@@H]2C[C@@H](O)CN2C(=O)[C@H](CCc2ccc(C(F)(F)F)c(Cl)c2)NC(=O)CN(C)C(=O)[C@H](Cc2ccc(C)cc2)N(CC)C(=O)CN(C)C(=O)CN(C)C1=O` [PP0041] ([NMeL]I[Sar][Sar][NEtPhe(4-Me)][Sar][hPhe(3-Cl-4-CF3)][Hyp][Ac5c][NMeGly(cPent)][NMeD]-Morpholide; lactam N-11): in experiment [1], the “HRAS/KRAS (ratio of KD value for HRAS to KD value for KRAS)” value was “C (A compound having a KD ratio of 0.1 or more and less than 3 is denoted as C)”. The dissociation constant Kd in experiment [2] (setting [5]) was found to be 0.12 nM. Moreover, the IC50 in experiment [3] is 62.7 nM. Further, the “NRAS/KRAS (ratio of KD value for NRAS to KD value for KRAS)” value in experiment [4] was “B (a compound having 3 or more and less than 10 is denoted as B)”.
With `C#CCN1CC(=O)N(C)[C@H]2C/C=C\CCN(C2=O)[C@@H](Cc2ccc(C)cc2)C(=O)N(C)CC(=O)N[C@@H](CCc2ccc(C(F)(F)F)c(Cl)c2)C(=O)N2C[C@H](OCC)C[C@H]2C(=O)NC2(CC(C)(C)C2)C(=O)N(C)[C@@H](C2CCCC2)C(=O)N(C)[C@H](C(=O)N(C)C)CC(=O)N(C)[C@@H](CCC)C(=O)N[C@@H](CC(C)C)C1=O` [PP2526], the “HRAS/KRAS (ratio of KD value with respect to GDP-bound HRAS wild-type protein to KD value with respect to KRAS)” value in experiment [1] (SPR KD ratio HRAS/KRAS, class symbols) is “B (a compound having 3 or more and less than 10 is denoted as B)”. Also, in experiment [2] (setting [5]), the Kd is 4 nM. This compound also yielded an IC50 in experiment [3] of 54.5 nM. Also, the “NRAS/KRAS (ratio of KD value with respect to GDP-bound NRAS wild-type protein to KD value with respect to KRAS)” value in experiment [4] (SPR KD ratio NRAS/KRAS, class symbols) is “A (a compound having 10 or more and less than 20 is denoted as A)”.
Take `CCO[C@@H]1C[C@H]2C(=O)NC3(CC(C)(C)C3)C(=O)N(C)[C@@H](C(CC)CC)C(=O)N(C)[C@H](C(=O)N(C)C)CC(=O)N(C)[C@@H](COC)C(=O)N[C@@H]([C@@H](C)CC)C(=O)N(C)CC(=O)N(C)[C@H]3C/C=C\CCN(C3=O)[C@@H](CC3CCC(F)(F)CC3)C(=O)N(C)CC(=O)N[C@@H](CCc3cc(F)c(C(F)(F)F)c(F)c3)C(=O)N2C1` [PP2440]: in experiment [1], the “HRAS/KRAS (ratio of KD value for HRAS to KD value for KRAS)” value is “A (a compound having 10 or more and less than 20 is denoted as A)”. Moreover, the dissociation constant Kd in experiment [2] (SPR, Single Cycle Kinetics) came to 0.44 nM. Also, the midpoint of inhibition in experiment [3], the IC50, lay at 20.1 nM. In experiment [4], the “NRAS/KRAS (ratio of KD value for NRAS to KD value for KRAS)” value is “A (a compound having 10 or more and less than 20 is denoted as A)”.
For `CCO[C@@H]1C[C@H]2C(=O)NC3(CCC3)C(=O)N(C)[C@@H](C3CCCC3)C(=O)N(CC)[C@H](C(=O)N3CCOCC3)CC(=O)N(C)[C@@H](CCC(F)F)C(=O)N[C@@H]([C@@H](C)CC)C(=O)N(C)CC(=O)N(C)[C@H]3CCCCCN(C3=O)[C@@H](Cc3ccc(C(F)(F)F)cc3)C(=O)N(C)CC(=O)N[C@@H](CCc3cc(F)c(C(F)(F)F)c(F)c3)C(=O)N2C1` [PP0948], the “HRAS/KRAS (ratio of KD value for HRAS to KD value for KRAS)” value in experiment [1] is “A (a compound having 10 or more and less than 20 is denoted as A)”. Also, the Kd in experiment [2] (SPR, Single Cycle Kinetics) is 3.2 nM. In experiment [3], this compound had an IC50 of 234 nM. Also, the “NRAS/KRAS (ratio of KD value for NRAS to KD value for KRAS)” value in experiment [4] was “A (a compound having 10 or more and less than 20 is denoted as A)”.
Take `CCO[C@@H]1C[C@H]2C(=O)NC3(CCC3)C(=O)N(C)[C@@H](C3CCCC3)C(=O)N(C)[C@H](C(=O)N3CCOCC3)CC(=O)N(C)[C@@H](CC)C(=O)N[C@@H]([C@@H](C)CC)C(=O)N3CC[C@H]3C(=O)N(C)[C@H]3CC[C@@H](C)CN(C3=O)[C@@H](Cc3ccc(C(F)(F)F)cc3)C(=O)N(C)CC(=O)N[C@@H](CCc3ccc(C(F)(F)F)c(Cl)c3)C(=O)N2C1` [PP1375]: the “HRAS/KRAS (ratio of KD value for HRAS to KD value for KRAS)” value in experiment [1] (KD ratio class) is “B (a compound having 3 or more and less than 10 is denoted as B)”. For the same compound, in experiment [2] (setting [6]), the dissociation constant (Kd) turned out to be 0.23 nM. 11.5 nM corresponded to half-maximal inhibition in experiment [3] (IC50). The “NRAS/KRAS (ratio of KD value for NRAS to KD value for KRAS)” value in experiment [4] (KD ratio class) is “B (a compound having 3 or more and less than 10 is denoted as B)”.
`CCOC[C@H]1C(=O)N[C@@H]([C@@H](C)CC)C(=O)N(C)CC(=O)N(C)[C@H]2C/C=C\CCN(C2=O)[C@@H](CC2CCC(F)(F)CC2)C(=O)N(C)CC(=O)N[C@@H](CCc2cc(F)c(C(F)(F)F)c(F)c2)C(=O)N2C[C@H](OCC)C[C@H]2C(=O)NC2(CC(C)(C)C2)C(=O)N(C)[C@@H](C(CC)CC)C(=O)N(C)[C@H](C(=O)N(C)C)CC(=O)N1C` [PP2450]: in experiment [1], the “HRAS/KRAS (ratio of KD value for HRAS to KD value for KRAS)” value is “A (a compound having 10 or more and less than 20 is denoted as A)”. The Kd in experiment [2] (SPR, Single Cycle Kinetics) is 0.55 nM. Besides, inhibition in experiment [3] was half-maximal at 29.2 nM (IC50). In addition, in experiment [4], the “NRAS/KRAS (ratio of KD value for NRAS to KD value for KRAS)” value was “A (a compound having 10 or more and less than 20 is denoted as A)”.
With `CCO[C@@H]1C[C@H]2C(=O)NC3(CCC3)C(=O)N(C)[C@@H](C3CCCC3)C(=O)N(C)[C@H](C(=O)N3CCOCC3)CC(=O)N(C)[C@@H](Cc3cccc(C)c3)C(=O)N[C@@H]([C@@H](C)CC)C(=O)N(C)CC(=O)N(C)[C@H]3CCCCCN(C3=O)[C@@H](Cc3ccc(C(F)(F)F)cc3)C(=O)N(C)CC(=O)N[C@@H](CCc3cc(F)c(C(F)(F)F)c(F)c3)C(=O)N2C1` [PP0932], the “HRAS/KRAS (ratio of KD value for HRAS to KD value for KRAS)” value in experiment [1] was “B (a compound having 3 or more and less than 10 is denoted as B)”. Further, the Kd in experiment [2] (SPR, Single Cycle Kinetics) was 2.9 nM. In experiment [3], this compound displayed an IC50 of 158 nM. For the same compound, the “NRAS/KRAS (ratio of KD value for NRAS to KD value for KRAS)” value in experiment [4] was “B (a compound having 3 or more and less than 10 is denoted as B)”.
Regarding `CCC[C@H]1C(=O)N[C@@H]([C@@H](C)CC)C(=O)N(C)CC(=O)N(C)[C@H]2C/C=C\CCN(C2=O)[C@@H](Cc2ccc(C(F)(F)F)cc2)C(=O)N(C)CC(=O)N[C@@H](CCc2ccc(C(F)(F)F)c(OC)c2)C(=O)N2C[C@@H](C)C[C@H]2C(=O)N(C)C2(CCC2)C(=O)N(C)[C@@H](C2CCCC2)C(=O)N(C)[C@H](C(=O)N(C)C)CC(=O)N1C` [PP2358], in experiment [1], the “HRAS/KRAS (ratio of KD value for HRAS to KD value for KRAS)” value was “B (a compound having 3 or more and less than 10 is denoted as B)”. Further, the dissociation constant (Kd) in experiment [2] (SPR, Single Cycle Kinetics) came out at 0.02 nM. The IC50 in experiment [3] was determined as 2.5 nM. The “NRAS/KRAS (ratio of KD value for NRAS to KD value for KRAS)” value in experiment [4] was “A (a compound having 10 or more and less than 20 is denoted as A)”.
On to `CCO[C@@H]1C[C@H]2C(=O)NC3(CCC3)C(=O)N(C)[C@@H](C3CCCC3)C(=O)N(C)[C@H](C(=O)N(C)C)CC(=O)N(C)[C@@H](CC3CC3)C(=O)N[C@@H]([C@@H](C)CC)C(=O)NCC(=O)N(C)[C@H]3C/C=C\CCN(C3=O)[C@@H](Cc3ccc(C(F)(F)F)cc3)C(=O)N(C)CC(=O)N[C@@H](CCc3cc(F)c(C(F)(F)F)c(F)c3)C(=O)N2C1` [PP1406, (2S,8S,12R,14S,20S,23S,27S,30S,36S,38Z)-20-cyclopentyl-27-(cyclopropylmethyl)-8-[2-[3,5-difluoro-4-(trifluoromethyl)phenyl]ethyl]-12-ethoxy-N,N,4,19,22,26,35-heptamethyl-30-[(1S)-1-methylpropyl]-3,6,9,15,18,21,25,28,31,34,42-undecaoxo-2-[[4-(trifluoromethyl)phenyl]methyl]spiro[1,4,7,10,16,19,22,26,29,32,35-undecazatricyclo[34.5.1.0^10,14]dotetracont-38-ene-17,1′-cyclobutane]-23-carboxamide], for which the “HRAS/KRAS (ratio of KD value for HRAS to KD value for KRAS)” value in experiment [1] (KD ratio class) is “B (a compound having 3 or more and less than 10 is denoted as B)”. Also, the Kd in experiment [2] (setting [6]) came out at 0.072 nM. The compound further came in with an IC50 in experiment [3] of 10.9 nM. Moreover, the “NRAS/KRAS (ratio of KD value for NRAS to KD value for KRAS)” value in experiment [4] (KD ratio class) was “A (a compound having 10 or more and less than 20 is denoted as A)”.
